Source: patent US12371464B2, “Polypeptides and uses thereof” (MEDIMMUNE LIMITED, priority 2020, dated 2025)
Numbered stars: 1 amine (or outer) side, 2 acyl side, 3 side chain; on linkers, the order of the positions; unused ones are H or OH. Bridge positions count the residues as written; N and C are the ends. Side chains are listed from the residue outwards. Peptide text beside a SMILES is read from it. * marks the point of attachment. C20 diacid = O=C(O)CCCCCCCCCCCCCCCCCCC(=O)*; γGlu = O=C(O)[C@H](CCC(=O)[*:2])N[*:1]

What was measured:
[1] = molecular target: T1, human amylin receptor (calcitonin receptor co-expressed with receptor activity modifying protein, RAMP3) (hAMYR3) (Homo sapiens, UniProt O60896+P30988); assay: cAMP production in 1321N1 cells with stable recombinant expression of human amylin receptor (hAMYR3); type: cell-based; details: cAMP production, 1321N1 cells expressing human amylin3 receptor
T1 construct: expressed in transfected cells
T1 sequence (P30988 25-474): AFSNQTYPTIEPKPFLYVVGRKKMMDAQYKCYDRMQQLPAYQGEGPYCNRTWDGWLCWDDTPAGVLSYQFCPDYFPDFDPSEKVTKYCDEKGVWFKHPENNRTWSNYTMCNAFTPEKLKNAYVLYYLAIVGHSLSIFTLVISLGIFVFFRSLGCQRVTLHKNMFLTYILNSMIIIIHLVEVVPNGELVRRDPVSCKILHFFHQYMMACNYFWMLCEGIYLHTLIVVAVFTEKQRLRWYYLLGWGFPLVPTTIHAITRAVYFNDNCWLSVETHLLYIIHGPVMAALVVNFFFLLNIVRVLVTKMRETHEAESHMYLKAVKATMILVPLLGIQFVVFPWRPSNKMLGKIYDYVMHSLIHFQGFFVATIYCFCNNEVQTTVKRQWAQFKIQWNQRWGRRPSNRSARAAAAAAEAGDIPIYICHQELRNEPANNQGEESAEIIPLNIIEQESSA
T1 sequence (O60896 24-148 partner): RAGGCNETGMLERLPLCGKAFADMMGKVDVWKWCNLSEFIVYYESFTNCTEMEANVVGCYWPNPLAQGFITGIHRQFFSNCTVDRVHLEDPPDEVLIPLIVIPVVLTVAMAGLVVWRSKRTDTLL
Procedure: (§1) The functional activities of lipidated pramlintide analogue peptides, such as cAMP production, were tested in 1321N1 cell line with stable recombinant expression of human calcitonin receptor (hCTR) or human amylin receptor (calcitonin receptor co-expressed with receptor activity modifying protein, RAMP3) (hAMYR3) or HEK cells with stable recombinant expression of rat calcitonin receptor (rat CTR) or rat amylin receptor (calcitonin receptor co-expressed with receptor activity modifying protein, RAMP3) (Rat AMYR3).
(§2) Cryopreserved cell stock was thawed rapidly in a water-bath, suspended in assay buffer (0.1% BSA (Sigma #A3059) in HBSS (Sigma #H8264) with 25 mM HEPES, pH 7.4 and containing 0.5 mM IB MX (Sigma #17018)) and spun at 240×g for 5 minutes. Cells were re-suspended in assay buffer at a batch-dependent optimized concentration (e.g. hCTR cells at 0.125×10^5 cells/mL, hAMYR3 cells at 0.125×10^5 cells/mL, rat CTR cells at 1×10^5 cells/mL, rat AMYR3 at 2×10^5 cells/mL).
(§3) The test peptide stock was prepared in DMSO and diluted in assay buffer to reach stated concentrations and transferred in duplicates into a 384-black shallow well microtitre assay plate (Corning #3676). Cells were added to the assay plate, incubated at room temperature for 30 minutes and the CAMP level measured using CAMP dynamic 2 HTRF kit (Cisbio, Cat #62AM4PEJ), following the two step protocol as per manufacturer's recommendations. The plates were read on an Envision (Perkin Elmer) using excitation wavelength of 320 nm and emission wavelengths of 620 nm & 665 nm.
(§4) Data was transformed to % Delta F as described in the manufacturer's guidelines and analyzed as percent activation of maximal amylin or calcitonin effect by 4-parameter logistic fit to determine EC50 values. The selectivity of a peptide to hAMYR vs hCTR is defined as a ratio of EC50 values at the two receptors.

[2] = molecular target: T2, human calcitonin receptor (hCTR) (Homo sapiens, UniProt P30988); assay: cAMP production in 1321N1 cells with stable recombinant expression of human calcitonin receptor (hCTR); type: cell-based; details: 1321N1 cells expressing human calcitonin receptor
T2 construct: expressed in transfected cells
T2 sequence (P30988 25-474): T1 sequence (P30988 25-474)
Procedure: as §1, §2, §3, §4

[3] = molecular target: T3, rat amylin receptor (calcitonin receptor co-expressed with receptor activity modifying protein, RAMP3) (Rat AMYR3) (Rattus norvegicus, UniProt P32214+Q9JJ73); assay: cAMP production in HEK cells with stable recombinant expression of rat amylin receptor (Rat AMYR3); type: cell-based; details: cAMP HTRF, assay buffer with 0.1% BSA, 30 minutes
T3 construct: expressed in transfected cells
T3 sequence (P32214 25-516): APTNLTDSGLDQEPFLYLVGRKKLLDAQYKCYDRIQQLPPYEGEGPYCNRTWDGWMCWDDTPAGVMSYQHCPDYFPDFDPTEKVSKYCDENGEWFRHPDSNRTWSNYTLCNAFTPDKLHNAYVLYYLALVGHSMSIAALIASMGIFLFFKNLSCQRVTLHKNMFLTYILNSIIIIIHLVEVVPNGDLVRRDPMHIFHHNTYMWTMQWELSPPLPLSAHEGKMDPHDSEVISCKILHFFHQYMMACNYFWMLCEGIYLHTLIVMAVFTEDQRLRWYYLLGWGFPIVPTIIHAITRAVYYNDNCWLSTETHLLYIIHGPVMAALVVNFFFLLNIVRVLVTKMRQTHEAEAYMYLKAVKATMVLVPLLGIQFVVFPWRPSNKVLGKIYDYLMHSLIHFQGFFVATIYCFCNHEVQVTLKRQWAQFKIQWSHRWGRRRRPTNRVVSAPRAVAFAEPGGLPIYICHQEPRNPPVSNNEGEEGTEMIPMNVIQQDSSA
T3 sequence (Q9JJ73 23-147 partner): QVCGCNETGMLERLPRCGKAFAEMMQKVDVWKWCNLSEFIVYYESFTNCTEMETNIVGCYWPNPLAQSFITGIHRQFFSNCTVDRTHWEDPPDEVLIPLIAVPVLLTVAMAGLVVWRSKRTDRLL
Procedure: as §1, with “AMYR3). […]” for “AMYR3).”
as §3
Data was transformed to % Delta F as described in the manufacturer's guidelines and analyzed as percent activation of maximal amylin or calcitonin effect by 4-parameter logistic fit to determine EC50 values. […]

[4] = tested on: lean rats; assay: Rat acute food intake study; type: in vivo, Sprague Dawley rats; details: 20 nmol/kg subcutaneously
Procedure: Male Sprague Dawley rats were obtained from Taconic Denmark, ApS at approximately 7 weeks of age. . . . Rats were implanted with a microchip for identification, housed 4/cage with enrichment, free access to food and water, and allowed one week acclimatisation while non-invasive characterization was performed. Rats were on a 12:12 light:dark cycle that switches at 1 pm:1 am. Food intake was monitored via the HM2 system (Lafayette Instrument) that allows for monitoring in a home cage. As each rat enters an access tunnel to feed, an IR beam is broken, and the implanted microchip is read. Resulting changes to food weight is then assigned to the specific animal. Social order has shown no impact to overall feeding patterns and amounts.
Rats were sorted into groups based on Day-1 body weight and 24-hour accumulated food intake (n=7 per group). On Day 0 rats were weighed, then fasted for 6 hours. Thirty (30) minutes prior to the reintroduction of food, rats were dosed subcutaneously (5 ml/kg) with 20 nmol/kg of test compound or 60 nmol/kg peptide 1 (pramlintide) diluted in an appropriate vehicle, after which food was returned, and lights went out. Automated food intake was monitored for the following 3 days, and rats were weighed once per day.
Food intake per rat was batched into 1-hour intervals and integrated into Gubra's GubraView data management system. Discrete food intake data was exported into MS Excel from which cumulative food intake data was generated. Cumulative food intake data was then transposed into GraphPad Prism (v8.0.1) for analysis of dark period feeding

[5] = in vivo; details: male, Sprague-Dawley, rat, 20 nmol/kg
Procedure: PK studies were performed to determine the half-life (T1/2) of test peptides. T1/2 describes the time taken for the maximum plasma concentration (Cmax) of a test substance to halve its steady-state concentration when in circulation.
The animals were 6-8 weeks old with body weights of 200-300 g on the dosing date. The animals were housed in a 12-hour light/12-hour dark cycle environment and were fasted overnight before dosing. The body weight of the animals were recorded before dosing, 24 h and 48 h post dosing.
Test articles were administered at 20 nmol/kg. Blood samples were collected from each animal via Jugular vein.
The blood samples were transferred into eppendorf low binding tube containing K2EDTA. Above 0.150 mL blood were collected at each time point. Blood samples were centrifuged at 4,000 g for 5 minutes at 4° C. to obtain plasma. The plasma samples were stored frozen at −75±15° C. until analysis.
Concentrations of the test articles in the plasma samples were analyzed using a LC-MS/MS method. […] The pharmacokinetic parameters of test articles were calculated using a non-compartmental approach with Phoenix™ WinNonlin®6.1.
The following pharmacokinetic parameters were calculated, whenever possible from the plasma concentration versus time data: • IV administration: T1/2, C0, AUClast, AUCinf, MRTinf, CI, Vss, Number of Points for Regression. • SC administration: Tmax, Cmax, AUClast, AUCinf, MRTinf, F, Number of Points for Regression.

EC50 [1] [nM]	EC50 [2] [nM]	EC50 [3] [nM]	half-life ([5]; iv) [h]	half-life ([5]; sc) [h]	SMILES	Cummulative food intake (% vehicle treated intake) At 12 h [4] [% vehicle treated intake]	Cummulative food intake (% vehicle treated intake) At 24 h [4] [% vehicle treated intake]	Cummulative food intake (% vehicle treated intake) At 48 h [4] [% vehicle treated intake]
0.703	7.65	0.0226	14.9	20.3	CC[C@H](C)[C@H](NC(=O)[C@H](C)NC(=O)[C@@H]1CCCN1C(=O)[C@H](Cc1ccccc1)NC(=O)[C@H](CC(N)=O)NC(=O)[C@@H]1CCCN1C(=O)[C@H](CO)NC(=O)[C@H](CO)NC(=O)[C@H](Cc1c[nH]cn1)NC(=O)[C@@H](NC(=O)[C@H](CC(C)C)NC(=O)[C@H](Cc1ccccc1)NC(=O)[C@H](CC(N)=O)NC(=O)[C@H](C)NC(=O)[C@H](CC(C)C)NC(=O)[C@H](CCCNC(=N)N)NC(=O)[C@H](CCC(N)=O)NC(=O)[C@@H](NC(=O)[C@H](C)NC(=O)[C@@H]1CSSC[C@H](NC(=O)[C@@H](N)CCCCNC(=O)CC[C@H](NC(=O)CC[C@H](NC(=O)CCCCCCCCCCCCCCCCCCC(=O)O)C(=O)O)C(=O)O)C(=O)N[C@@H](CC(N)=O)C(=O)N[C@@H]([C@@H](C)O)C(=O)N[C@@H](C)C(=O)N[C@@H]([C@@H](C)O)C(=O)N1)[C@@H](C)O)C(C)C)C(=O)N[C@@H](CC(C)C)C(=O)N[C@@H](CO)C(=O)N1CCC[C@H]1C(=O)N[C@H](C(=O)N[C@@H](CC(N)=O)C(=O)N[C@H](C(=O)NCC(=O)N[C@@H](CO)C(=O)N[C@@H](CC(N)=O)C(=O)N[C@H](C(=O)N[C@@H](Cc1ccc(O)cc1)C(N)=O)[C@@H](C)O)C(C)C)[C@@H](C)O [Peptide 115] (H-K([γGlu-γGlu-C20 diacid])CNTATCATQRLANFLVHSSPNFPAILSPTNVGSNTY-NH2; disulfide 2-7; N-terminus assumed)	42.4	41.3	52.2
1.32	15.8	0.0122	13	21.6	CC[C@H](C)[C@H](NC(=O)[C@@H]1CCCN1C(=O)CNC(=O)[C@H](Cc1ccccc1)NC(=O)[C@H](CC(N)=O)NC(=O)[C@H](CC(N)=O)NC(=O)[C@H](CO)NC(=O)[C@H](CO)NC(=O)[C@H](Cc1c[nH]cn1)NC(=O)[C@@H](NC(=O)[C@H](CC(C)C)NC(=O)[C@H](Cc1ccccc1)NC(=O)[C@H](CC(N)=O)NC(=O)[C@H](C)NC(=O)[C@H](CC(C)C)NC(=O)[C@H](CCCNC(=N)N)NC(=O)[C@H](CCC(N)=O)NC(=O)[C@@H](NC(=O)[C@H](C)NC(=O)[C@@H]1CSSC[C@H](NC(=O)[C@@H](N)CCCCNC(=O)CC[C@H](NC(=O)CC[C@H](NC(=O)CCCCCCCCCCCCCCCCCCC(=O)O)C(=O)O)C(=O)O)C(=O)N[C@@H](CC(N)=O)C(=O)N[C@@H]([C@@H](C)O)C(=O)N[C@@H](C)C(=O)N[C@@H]([C@@H](C)O)C(=O)N1)[C@@H](C)O)C(C)C)C(=O)N[C@@H](CC(C)C)C(=O)N1CCC[C@H]1C(=O)N1CCC[C@H]1C(=O)N[C@H](C(=O)N[C@@H](CC(N)=O)C(=O)N[C@H](C(=O)NCC(=O)N[C@@H](CO)C(=O)N[C@@H](CCCNC(=N)N)C(=O)N[C@H](C(=O)N[C@@H](Cc1ccc(O)cc1)C(N)=O)[C@@H](C)O)C(C)C)[C@@H](C)O [Peptide 114] (H-K([γGlu-γGlu-C20 diacid])CNTATCATQRLANFLVHSSNNFGPILPPTNVGSRTY-NH2; disulfide 2-7; N-terminus assumed)	42.3	45.1	53.8
